Measured values reported in ChEMBL document CHEMBL4680308, “Chemo-enzymatic synthesis of adenine substituted nicotinic acid adenine dinucleotide phosphate (NAADP) analogs” (Bioorg Med Chem, 2021).

What was measured:
[1] = Desensitization of NAADP receptor in sea urchin egg homogenate assessed as ability to induce time dependent sub-threshold desensitization of calcium release pretreated for 7 mins followed by 1 uM NAADP added by measuring inhibition of calcium release by fluorometric assay; format: tissue-based, Strongylocentrotus purpuratus
[2] = Agonist activity at NAADP receptor in sea urchin egg homogenate assessed as increase in calcium release by fluo-3 based flurometric assay; format: tissue-based, Strongylocentrotus purpuratus

EC50 [2] | SMILES | IC50 [1]
0.008 µM | Nc1ncnc2c1ncn2[C@@H]1O[C@H](COP(=O)(O)OP(=O)(O)OC[C@H]2O[C@@H]([n+]3cccc(C(=O)[O-])c3)[C@H](O)[C@@H]2O)[C@@H](O)[C@H]1OP(=O)(O)O | 0.00014 µM
2.86 µM | C#Cc1nc2c(N)ncnc2n1[C@@H]1O[C@H](COP(=O)(O)OP(=O)(O)OC[C@H]2O[C@@H]([n+]3cc(N=[N+]=[N-])cc(C(=O)[O-])c3)[C@H](O)[C@@H]2O)[C@@H](O)[C@H]1OP(=O)(O)O | 0.099 µM
0.71 µM | C#Cc1nc2c(N)ncnc2n1[C@@H]1O[C@H](COP(=O)(O)OP(=O)(O)OC[C@H]2O[C@@H]([n+]3cccc(C(=O)[O-])c3)[C@H](O)[C@@H]2O)[C@@H](O)[C@H]1OP(=O)(O)O | 0.0121 µM
